Results taken from article PMC3641313 (Korean Journal of Pediatrics, 2013).
Entries after “also recorded” stand apart in the source; their conditions may differ. Read-outs that look alike come from different tables or passages of the source.

Tested on: viral NA of influenza A/H1N1
Format: biochemical, influenza A/H1N1 virus

Structure (SMILES)	sensitivity or resistance of isolates by IC50 criteria (A/H1N1, first study period, both groups, […])	sensitivity or resistance of isolates by IC50 criteria (A/H1N1, second study period, both groups, […])	resistance of influenza A/H1N1 isolates	sensitivity or resistance of isolates by IC50 criteria
CCOC(=O)C1=C[C@@H](OC(CC)CC)[C@H](NC(C)=O)[C@@H](N)C1 [Oseltamivir]	sensitivity	high-level drug resistance		
CC(=O)N[C@H]1[C@H]([C@H](O)[C@H](O)CO)OC(C(=O)O)=C[C@@H]1N=C(N)N [Zanamivir]			no zanamivir resistance	sensitivity; also recorded: sensitive
